Data reported in US20110097385A1, “Delivery System for Drug and Cell Therapy” (TTDC BIO L.P., priority 2003, published 2011).

Tests used:
humans = conditions: in humans, company information (Novo Nordisk); cited from earlier work
mice = assay: Blood glucose in mice after injected insulin with or without crystallized dextran microparticles; type: in vivo; conditions: mouse
Protocol: The suspension was prepared as follows. 5.0 g of Dextran T10 (Pharmacia, Uppsala, Sweden) was dissolved in 20.0 g of water. The solution was filtered through a 0.22 μm filter (Millipore, Bedford, Mass.) and freeze dried. 3.0 g of the resulting powder was dissolved in 3.0 g of sterile water and placed in box at temperature 60° C. […] Finally, the produced crystallized dextran microparticles suspension was mixed with aqueous insulin solution and used in the experiment with mice. Samples of the suspension were introduced into the mice's legs and samples of animal blood were taken from each mouse's tail and analyzed for glucose concentrations.
In comparative example 15, no insulin was injected into the mouse.

mouse = assay: Blood glucose in mouse after subcutaneous two phase composition or insulin alone; type: in vivo; conditions: 0.5 UI insulin subcutaneously
Protocol: 0.05 ml of the PEG and insulin solution is mixed with 0.15 ml of the microparticle and dextran suspension to form a two phase composition or mixture. 0.02 ml of the two phase mixture containing 0.5 UI of insulin is injected subcutaneously into mouse.

Chinchilla rabbits = assay: Blood glucose and duration of efficacy in rabbits after subcutaneous insulin formulations; conditions: rabbit, 8 UI subcutaneously
Protocol: Samples of the formulation were subcutaneously injected into the rabbits. […] Samples of animal blood were taken from the rabbit's ear vein and analyzed for glucose concentration. Blood glucose concentration was measured with a glucose analyzer (One-Touch® Lifescan, Johnson & Johnson, Milpitas, Calif., USA) after proper calibration.
In comparative examples 23 and 24, two intact rabbits were not provided any insulin.

[1] = insulin 0.5 UI injected, listed as 16
[2] = insulin 0.5 UI injected, listed as 21

Actrapid HM®: short-acting human recombinant insulin of Novo Nordisk, injected alone; Ex 21 is the average of 16 and 17
advertised duration of efficacy (humans): eight | change of blood glucose level from 120 minutes to 390 minutes after injection (mice; insulin 0.5 UI): did substantially increase | glucose 0 min (mice; insulin 0.5 UI injected): 8.1 mmol/L | glucose 0 min (mice; [1]): 5.9 mmol/L | glucose 0 min (mice; [2]): 7 mmol/L | glucose 15 min (mice; insulin 0.5 UI injected): 3.8 mmol/L | glucose 15 min (mice; [1]): 3.3 mmol/L | glucose 15 min (mice; [2]): 3.6 mmol/L | glucose 30 min (mice; insulin 0.5 UI injected): 2.8 mmol/L | glucose 30 min (mice; [1]): 2.7 mmol/L | glucose 30 min (mice; [2]): 2.8 mmol/L | glucose 45 min (mice; insulin 0.5 UI injected): 1.9 mmol/L | glucose 45 min (mice; [1]): 1.8 mmol/L | glucose 45 min (mice; [2]): 1.9 mmol/L | glucose 120 min (mice; insulin 0.5 UI injected, 120 min): 0.9 mmol/L | glucose 210 min (mice; insulin 0.5 UI injected): 3.7 mmol/L | glucose 210 min (mice; [1]): 3.5 mmol/L | glucose 210 min (mice; [2]): 3.6 mmol/L | glucose 270 min (mice; insulin 0.5 UI injected): 3.4 mmol/L | glucose 270 min (mice; [1]): 3.0 mmol/L | glucose 270 min (mice; [2]): 3.2 mmol/L | glucose 390 min (mice; insulin 0.5 UI injected): 3.5 mmol/L | glucose 390 min (mice; [1]): 3.2 mmol/L | glucose 390 min (mice; [2]): 3.4 mmol/L | glucose 15 min (mouse; 15 min): 3.7 mmol/L | glucose 30 min (mouse; 30 min): 2.3 mmol/L | glucose 45 min (mouse; 45 min): 1.7 mmol/L | glucose 60 min (mouse; 60 min): 2.9 mmol/L | glucose 120 min (mouse; 120 min): 6.7 mmol/L

Monotard HM®: long-acting insulin of Novo Nordisk (40 UI/ml), injected subcutaneously alone at 8 UI
advertised duration of efficacy (humans): twenty four | glucose 0 hours (Chinchilla rabbits; 0 hours): 5.4 mmol/L | glucose 0.5 hours (Chinchilla rabbits; listed as 25): 5.8 mmol/L | glucose 0.5 hours (Chinchilla rabbits; listed as 26): 5.0 mmol/L | glucose 1 hour (Chinchilla rabbits; listed as 25): 3.8 mmol/L | glucose 1 hour (Chinchilla rabbits; listed as 26): 4.2 mmol/L | glucose 1.5 hours (Chinchilla rabbits; listed as 25): 3.2 mmol/L | glucose 1.5 hours (Chinchilla rabbits; listed as 26): 2.9 mmol/L | glucose 2 hours (Chinchilla rabbits; listed as 25): 2.4 mmol/L | glucose 2 hours (Chinchilla rabbits; listed as 26): 2.5 mmol/L | glucose 16 hours (Chinchilla rabbits; listed as 25): 3.9 mmol/L | glucose 16 hours (Chinchilla rabbits; listed as 26): 4.0 mmol/L | glucose 24 hours (Chinchilla rabbits; listed as 25): 5.6 mmol/L | glucose 24 hours (Chinchilla rabbits; listed as 26): 5.1 mmol/L | glucose […] (Chinchilla rabbits; listed as 25): 2.6 mmol/L | glucose […] (Chinchilla rabbits; listed as 26): 2.4 mmol/L
